Results as given in patent publication US7163940B2, “Pyrazolopyridinyl pyrimidine therapeutic compounds” (SmithKline Beecham Corporation, priority 2000, dated 2007).
Structures can show the parent of a compound that is named as a salt.

system: HSV-1; assay: HSV-1 replication in infected Vero 76 cells, viral DNA hybridization capture assay; type: cell-based; conditions: HSV-1, Vero 76 cells, MOI=0.001, 40–48 hours incubation
Method: Vero 76 cells were maintained in MEM with Earle's salts, L-glutamine, 8% FBS (Hyclone, A-1111-L) and 100 units/mL Penicillin-100 μg/mL Streptomycin. For assay conditions, FBS was reduced to 2%. Cells are seeded into 96-well tissue culture plates at a density of 5×10^4 cells/well after being incubated for 45 min at 37° C. in the presence of HSV-1 or HSV-2 (MOI=0.001). Test compounds are added to the wells and the plates are incubated at 37° C. for 40–48 hours. Cell lysates are prepared as follows: media was removed and replaced with 150 μL/well 0.2 N NaOH with 1% Igepal CA 630 or NP-40. Plates were incubated up to 14 days at room temperature in a humidified chamber to prevent evaporation. • (b) Preparation of Detection DNA.
For the detection probe, a gel-purified, digoxigenin-labeled, […] PCR fragment of the HSV UL-15 sequence was utilized. PCR conditions included 0.5 μM primers, 180 μM dTP, 20 μM dUTP-digoxigenin (Boehringer Mannheim 1558706), 200 μM each of dATP, dCTP, and dGTP, 1×PCR Buffer II (Perkin Elmer), 2.5 mM MgCl2, 0.025 units/μL of AmpliTaq Gold polymerase (Perkin Elmer), and 5 ng of gel-purified HSV DNA per 100 μL. Extension conditions were 10 min at 95° C., followed by 30 cycles of 95° C. for 1 min, 55° C. for 30 sec, and 72° C. for 2 min. The amplification was completed with a 10-min incubation at 72° C. Primers were selected to amplify a 728 bp probe spanning a section of the HSV1 UL15 open reading frame (nucleotides 249–977). Single-stranded transcripts were purified with Promega M13 Wizard kits. The final product was mixed 1:1 with a mixture of 6 M GuSCN, 100 mM EDTA and 200 μg/mL herring sperm DNA and stored at 4° C. • (c) Preparation of Capture Plates.
The capture DNA plasmid (HSV UL13 region in pUC) was linearized by cutting with Xba I, denatured for 15 min at 95° C. and diluted immediately into Reacti-Bind DNA Coating Solution (Pierce, 17250, diluted 1:1 with TE buffer, pH 8) at 1 ng/μL 75 μL/well were added to Corning (#3922 or 9690) white 96-well plates and incubated at room temperature for at least 4 hrs before washing twice with 300 μL/well 0.2×SSC/0.05% Tween-20 (SSC/T buffer). The plates were then incubated overnight at room temperature with 150 μL/well 0.2 N NaOH, 1% IGEPAL and 10 μg/mL herring sperm DNA. • (d) Hybridization.
Twenty-seven (27) μL of cell lysate was combined with 45 μL of hybridization solution (final concentration: 3M GuSCN, 50 mM EDTA, 100 μg/ml salmon sperm DNA, 5× Denhardt's solution, 0.25×APE, and 5 ng of the digoxigenin-labeled detection probe). APE is 1.5 M NH4-acetate, 0.15 M ammonium phosphate, and 5 mM EDTA adjusted to pH 6.0. Mineral oil (50 μL) was added to prevent evaporation. The hybridization plates were incubated at 95° C. for 10 minutes to denature the DNA, then incubated at 42° C. overnight. The wells were washed 6× with 300 μL/well SSC/T buffer then incubated with 75 μL/well anti-digoxigenin-HRP-conjugated antibody (Boehringer Mannheim 1207733, 1:5000 in TE) for 30 min at room temperature. The wells were washed 6× with 300 μL/well with PBS/0.05% Tween-20 before 75 μL/well SuperSignal LBA substrate (Pierce) was added. The plates were incubated at room temperature for 30 minutes and chemiluminescence was measured in a Wallac Victor reader. • e) Results.
The following results were obtained for HSV-1.

IC50 [nM] | SMILES
1200 | CCCCNc1nccc(-c2c(-c3ccc(F)cc3)nn3c(NCCC)cccc23)n1 [Example 55, 3-[2-(Butylamino)-4-pyrimidinyl]-2-(4-fluorophenyl)-N-propylpyrazolo[1,5-α]pyridin-7-amine]
800 | Cc1cc(-c2c(-c3ccc(F)cc3)nn3c(NC4CCCC4)cccc23)nc(NC2CCCC2)n1 [Example 8, N-Cyclopentyl-3-[2-(cyclopentylamino)-6-methyl-4-pyrimidinyl]-2-(4-fluorophenyl)pyrazolo[1,5-α]pyridin-7-amine]

same assay, conditions: Human alphaherpesvirus 1, Vero 76, HSV-1, Vero 76 cells, MOI=0.001, 40–48 hours incubation

IC50 [nM] | SMILES
5000 | CN(C)c1nccc(-c2c(-c3ccc(F)cc3)nn3c(N4CCCC4)cccc23)n1 [Example 32, 4-[2-(4-Fluorophenyl)-7-(1-pyrrolidinyl)pyrazolo[1,5-α]pyridin-3-yl]-N,N-dimethyl-2-pyrimidinamine]
1000 | CN(C)c1nccc(-c2c(-c3ccc(F)cc3)nn3c(NC4CCCC4)cccc23)n1 [Example 11, N-Cyclopentyl-3-[2-(dimethylamino)-4-pyrimidinyl]-2-(4-fluorophenyl)pyrazolo[1,5-α]pyridin-7-amine]
5000 | Cc1cc(-c2c(-c3ccc(F)cc3)nn3c(NN)cccc23)nc(NC2CCCC2)n1 [Example 14, N-Cyclopentyl-4-[2-(4-fluorophenyl)-7-hydrazinopyrazolo[1,5-α]pyridin-3-yl]-6-methyl-2-pyrimidinamine]
300 | Fc1ccc(-c2nn3c(NC4CCCC4)cccc3c2-c2ccnc(NC3CCCC3)c2)cc1 [Example 29, N-Cyclopentyl-3-[2-(cyclopentylamino)-4-pyridinyl]-2-(4-fluorophenyl)pyrazolo[1,5-α]pyridin-7-amine]
3000 | OCc1cc(-c2c(-c3ccc(F)cc3)nn3c(Cl)cccc23)nc(NC2CCCC2)n1 [Example 17, [6-[7-Chloro-2-(4-fluorophenyl)pyrazolo[1,5-α]pyridin-3-yl]-2-(cyclopentylamino)-4-pyrimidinyl]methanol]
700 | CN1CCCC1CCNc1cccc2c(-c3ccncc3)c(-c3ccc(F)cc3)nn12 (stereo not drawn) [Example 57, N-[2-(4-Fluorophenyl)-3-(4-pyridinyl)pyrazolo[1,5-α]pyridin-7-yl]-N-[2-(1-methyl-2-pyrrolidinyl)ethyl]amine]
6000 | CCCCNc1cccc2c(-c3ccnc(N4CCN(CCO)CC4)n3)c(-c3ccc(F)cc3)nn12 [Example 41, 2-(4-{4-[7-(Butylamino)-2-(4-fluorophenyl)pyrazolo[1,5-α]pyridin-3-yl]-2-pyrimidinyl}-1-piperazinyl)ethanol]
3000 | CCCCNc1cccc2c(-c3ccnc(NCc4ccccn4)n3)c(-c3ccc(F)cc3)nn12 [Example 43, N-Butyl-2-(4-fluorophenyl)-3-{2-[(2-pyridinylmethyl)amino]-4-pyrimidinyl}pyrazolo[1,5-α]pyridin-7-amine]
10000 | CCCCNc1cccc2c(-c3ccnc(N4CCN(CCOC)CC4)n3)c(-c3ccc(F)cc3)nn12 [Example 42, N-Butyl-2-(4-fluorophenyl)-3-{2-[4-(2-methoxyethyl)-1-piperazinyl]-4-pyrimidinyl}pyrazolo[1,5-α]pyridin-7-amine]
20000 | CN(CC(=O)O)c1nccc(-c2c(-c3ccc(F)cc3)nn3c(NC4CCCC4)cccc23)n1 [Example 18, [{4-[7-(Cyclopentylamino)-2-(4-fluorophenyl)pyrazolo[1,5-α]pyridin-3-yl]-2-pyrimidinyl}(methyl)amino]acetic acid]
> 20000 | Fc1ccc(-c2nn3c(Cl)cccc3c2-c2ccnc(NC3CC3)n2)cc1 [Example 79, 4-[7-Chloro-2-(4-fluorophenyl)pyrazolo[1,5-α]pyridin-3-yl]-N-cyclopropylpyrimidin-2-amine]
7000 | CCCCNc1cccc2c(-c3ccnc(OCCN4CCOCC4)n3)c(-c3ccc(F)cc3)nn12 [Example 46, N-Butyl-2-(4-fluorophenyl)-3-{2-[2-(4-morpholinyl)ethoxy]-4-pyrimidinyl}pyrazolo[1,5-α]pyridin-7-amine]
1000 | Fc1ccc(-c2nn3c(N4CCCC4)cccc3c2-c2ccnc(NC3CCCC3)n2)cc1 [Example 31, N-Cyclopentyl-4-[2-(4-fluorophenyl)-7-(1-pyrrolidinyl)pyrazolo[1,5-α]pyridin-3-yl]-2-pyrimidinamine]
1000 | Nc1cccc2c(-c3ccnc(NC4CCCC4)n3)c(-c3ccc(F)cc3)nn12 [Example 21, 3-[2-(Cyclopentylamino)-4-pyrimidinyl]-2-(4-fluorophenyl)pyrazolo[1,5-α]pyridin-7-amine]
4000 | CCN(CC)c1cccc2c(-c3ccncc3)c(-c3ccc(F)cc3)nn12 [Example 59, N,N-Diethyl-2-(4-fluorophenyl)-3-(4-pyridinyl)pyrazolo[1,5-α]pyridin-7-amine]
2500 | CN1CCN(c2cccc3c(-c4cc(-c5ccccc5)nc(NC5CCCC5)n4)c(-c4ccc(F)cc4)nn23)CC1 [Example 19, N-Cyclopentyl-4-[2-(4-fluorophenyl)-7-(4-methyl-1-piperazinyl)pyrazolo[1,5-α]pyridin-3-yl]-6-phenyl-2-pyrimidinamine hydrochloride]
1300 | CSc1cccc2c(-c3cc(NC4CCCC4)ncn3)c(-c3ccc(F)cc3)nn12 [Example 83, N-Cyclopentyl-6-[2-(4-fluorophenyl)-7-(methylthio)pyrazolo[1,5-α]pyridin-3-yl]pyrimidin-4-amine]
2000 | Fc1ccc(-c2nn3c(NC4CCCC4)cccc3c2-c2ccncc2)cc1 [Example 28, N-cyclopentyl-2-(4-fluorophenyl)-3-(4-pyridinyl)pyrazolo[1,5-α]pyridin-7-amine]
10500 | CNc1cccc2c(-c3ccncc3)c(-c3ccc(F)cc3)nn12 [Example 58, 2-(4-Fluorophenyl)-N-methyl-3-(4-pyridinyl)pyrazolo[1,5-α]pyridin-7-amine]
1000 | Cc1cnc(NC2CCCC2)nc1-c1c(-c2ccc(F)cc2)nn2c(NC3CCCC3)cccc12 [Example 53, N-Cyclopentyl-3-[2-(cyclopentylamino)-5-methyl-4-pyrimidinyl]-2-(4-fluorophenyl)pyrazolo[1,5-α]pyridin-7-amine]
500 | CCCCNc1nccc(-c2c(-c3ccc(F)cc3)nn3c(NCCCC)cccc23)n1 [Example 3, N-Butyl-3-[2-(butylamino)-4-pyrimidinyl]-2-(4-fluorophenyl)pyrazolo-[1,5-α]pyridin-7-amine]
5000 | NNc1cc(-c2c(-c3ccc(F)cc3)nn3c(NC4CCCC4)cccc23)ccn1 [Example 30, N-Cyclopentyl-2-(4-fluorophenyl)-3-(2-hydrazino-4-pyridinyl)pyrazolo[1,5-α]pyridin-7-amine]
6000 | Fc1ccc(-c2nn3c(NC4CCCC4)cccc3c2-c2ccnc(NCCCN3CCOCC3)n2)cc1 [Example 13, N-Cyclopentyl-2-(4-fluorophenyl)-3-(2-{[3-(4-morpholinyl)propyl]-amino}-4-pyrimidinyl)pyrazolo[1,5-α]pyridin-7-amine]
5000 | CCCCNc1cccc2c(-c3ccnc(NCCCO)n3)c(-c3ccc(F)cc3)nn12 [Example 38, 3-({4-[7-(Butylamino)-2-(4-fluorophenyl)pyrazolo[1,5-α]pyridin-3-yl]-2-pyrimidinyl}amino)-1-propanol]
5000 | CCCCNc1cccc2c(-c3ccnc(NCCN4CCOCC4)n3)c(-c3ccc(F)cc3)nn12 [Example 45, N-Butyl-2-(4-fluorophenyl)-3-(2-{[2-(4-morpholinyl)ethyl]amino}-4-pyrimidinyl)pyrazolo[1,5-α]pyridin-7-amine]
